Test results taken from PMC11926788, “Effect of SSR504734, a Selective Glycine Transporter Type 1 Inhibitor, on Seizure Thresholds, Neurotransmitter Levels, and Inflammatory Markers in Mice” (ACS Chemical Neuroscience, 2025).
Structures can show the parent of a compound that is named as a salt.

What was measured:
[1] = test system: tonic hindlimb extension in the MEST test in rats; conditions: cited from earlier work
[2] = test system: i.v. PTZ-induced seizures in mice; test: Intravenous (i.v.) PTZ seizure threshold test; type: in vivo; conditions: VPA 150 mg/kg
Procedure: Mice were individually placed in a plastic restrainer (12 cm long, 3 cm inner diameter), and the lateral vein of each mouse was catheterized using a 27-gauge needle (Sterican, B. Braun Melsungen, Melsungen, Germany). The needle was attached by polyethylene tubing (PE20RW, Plastics One Inc., Roanoke, VA, USA) to a 10 mL plastic syringe containing 1% solution of PTZ in saline (Sigma-Aldrich, St. Louis, MO, USA) and mounted to a syringe pump (model Physio 22, Hugo Sachs Elektronik, Harvard Apparatus GmbH, March-Hugstetten, Germany). Piece of adhesive tape was used to secure the needle. The proper placement of the needle in the vein was verified by the appearance of blood in the tubing. During the test, mice were placed in a transparent box for observation. The PTZ solution was administered to freely moving mice at a constant rate of 0.2 mL/min. The time intervals from the initiation of PTZ infusion to the occurrence of the three following end points, i.e., (1) the first myoclonic twitch, (2) generalized clonic seizure with loss of righting reflex, and (3) forelimb tonus, were recorded. The PTZ infusion was terminated when tonic seizures, which were often fatal for the mice, began. All mice that survived were euthanized immediately. The thresholds were calculated separately for each end point using the following formula: threshold dose of PTZ (mg/kg) = infusion duration (s) × infusion rate (mL/s) × PTZ concentration (mg/mL)/body weight (kg). Seizure threshold was expressed as the amount of PTZ (mg/kg) ± SD (standard deviation) needed to produce the first observable sign of each end point. Each group consisted of 12–15 animals.

[3] = Grip strength test (neuromuscular strength); type: in vivo, mice
Procedure: The effect of SSR504734 on neuromuscular strength was determined using the grip-strength apparatus (BioSeb, Chaville, France). The apparatus consists of a steel wire grid of 8 × 8 cm, connected to an isometric force transducer. Each mouse was held by the tail, allowing it to grasp the grid with its forepaws only and steadily pulled back until it released the grid. The maximum grip strength value (in newtons; N) was measured three times for each animal. The mean force was normalized to body weight and expressed in mN/g ± SD for each experimental group. In order to minimize the number of animals used, a grip-strength test was carried out shortly before seizure tests.
Table S2. Time-course effect of SSR5504734 on neuromuscular strength and motor […]
Group Neuromuscular strength Impairment of motor
SSR504734 was dissolved in normal saline and injected i.p. at the dose of 30 mg/kg. Control animals received saline. The data are expressed as the mean ± SD of grip strengths measured in millinewtons per gram of mouse body weight (mN/g) from the grip-strength test assessing […]
coordination impairment in the chimney test. Each experimental group consisted of 12 animals. The grip-strength test results were analyzed using a one-way ANOVA with Dunnett’s post hoc test, while the data from the chimney test were statistically evaluated using Fisher’s exact probability test. *p<0.05 vs. control group.
Table S3. Effect of acute and 14-day treatment with SSR504734 on neuromuscular strength and motor coordination in mice
In acute studies, SSR504734 and sodium valproate (VPA; positive control) were injected i.p.
60 and 15 min before the test, respectively. In subchronic studies, SSR504734 and VPA were injected i.p. every 24 h for 14 days. The last administration was made 60 and 15 min before the tests, respectively. Control animals received saline. Each experimental group consisted of 12 animals. The grip-strength test results were analyzed using a one-way ANOVA with […]
Fisher’s exact probability test.

[4] = test system: 6 Hz-induced psychomotor seizures in mice; test: 6 Hz-induced psychomotor seizure threshold test; type: in vivo; conditions: SSR504734 any of the doses tested, VPA 150 mg/kg
Procedure: Psychomotor seizures were induced through the application of rectangular pulses (0.2 ms width; 6 pulses per second) for 3 s using a Grass model CCU1 constant current unit coupled to a Grass S48 stimulator (Grass Technologies, Warwick, RI, USA). Stimuli were delivered via saline-soaked transcorneal electrodes. An ocular anesthetic (1% tetracaine hydrochloride) was administered on the animal’s corneas. Mice were restrained manually during stimulation and placed in transparent box immediately for behavioral observation. 6 Hz-induced seizures were characterized by head-nodding, chewing, eye-blinking, twitching of the vibrissae, rearing, stunned posture, forelimb clonus, and Straub tail. The absence of the described features or the return to normal exploratory behavior within 20 s poststimulation was considered as the absence of seizures. The 6 Hz seizure threshold test were conducted on groups of 20 animals stimulated with different current intensities by using the “up-and-down” method described by Kimball et al.[28]
The seizure threshold was quantified as the median current strength (CS50 value with confidence limits for 95% probability), predicting the induction of psychomotor seizures in 50% of the tested animals.

Question: For `O=C(NC(c1ccccc1)C1CCCCN1)c1cccc(C(F)(F)F)c1Cl` [SSR504734, 2-chloro-N-[(S)-phenyl[(2S)-piperidin-2-yl]methyl]-3-trifluoromethyl benzamide monohydrochloride], which “effect on threshold for tonic hindlimb extension” value [1] is on record?
Answer: strong, dose-dependent increase

Question: What about the “effect on thresholds for myoclonic twitch, generalized clonus and forelimb tonus” value ([2]; 14-day treatment i.p.) of the same molecule?
Answer: no significant effect

Question: And the “effect on thresholds for myoclonic twitch, generalized clonus and forelimb tonus” value ([2]; single administration i.p.)?
Answer: no significant effect

Question: And the Neuromuscular strength ([3]; 30 mg/kg i.p., 30 min)?
Answer: 30.33 ± 5.38 mN/g

Question: What about the Neuromuscular strength ([3]; 30 mg/kg i.p., 60 min) of the same molecule?
Answer: 33.63± 4.94 mN/g

Question: And the Neuromuscular strength ([3]; 30 mg/kg i.p., 120 min)?
Answer: 33.49 ± 3.76 mN/g

Question: What about the Neuromuscular strength ([3]; 30 mg/kg i.p., 240 min) of the same molecule?
Answer: 32.13 ± 3.42 mN/g

Question: What about the Neuromuscular strength ([3]; 14-day treatment, 3 mg/kg i.p.) of the same molecule?
Answer: 25.02 ± 5.35 mN/kg

Question: And the Neuromuscular strength ([3]; 14-day treatment, 10 mg/kg i.p.)?
Answer: 23.48 ± 5.98 mN/kg

Question: What about the Neuromuscular strength ([3]; 14-day treatment, 30 mg/kg i.p.) of the same molecule?
Answer: 27.76 ± 6.00 mN/kg

Question: And the Neuromuscular strength ([3]; acute treatment, 10 mg/kg i.p.)?
Answer: 31.15 ± 5.55 mN/kg

Question: What about the Neuromuscular strength ([3]; acute treatment, 30 mg/kg i.p.) of the same molecule?
Answer: 31.00 ± 9.46 mN/kg

Question: And the Neuromuscular strength ([3]; acute treatment, 50 mg/kg i.p.)?
Answer: 30.31 ± 5.08 mN/kg

Question: What about the “effect on current intensity necessary to induce psychomotor seizures” value ([4]; 14-day administration i.p.) of the same molecule?
Answer: no statistically significant effect

Question: What about the “effect on current intensity necessary to induce psychomotor seizures” value ([4]; single administration i.p.) of the same molecule?
Answer: no statistically significant effect
